Experimental data reported in patent US20200207734A1, “HETEROCYCLIC COMPOUND AND USE THEREOF” (Takeda Pharmaceutical Company Limited, priority 2017, published 2020).

Target: T1, human orexin type 2 receptor (Homo sapiens, UniProt O43614)
T1 construct: human orexin type 2 receptor cDNA was inserted into pcDNA3.1(+) plasmid vector (Invitrogen); expressed in transfected cells
T1 sequence (O43614 1-444): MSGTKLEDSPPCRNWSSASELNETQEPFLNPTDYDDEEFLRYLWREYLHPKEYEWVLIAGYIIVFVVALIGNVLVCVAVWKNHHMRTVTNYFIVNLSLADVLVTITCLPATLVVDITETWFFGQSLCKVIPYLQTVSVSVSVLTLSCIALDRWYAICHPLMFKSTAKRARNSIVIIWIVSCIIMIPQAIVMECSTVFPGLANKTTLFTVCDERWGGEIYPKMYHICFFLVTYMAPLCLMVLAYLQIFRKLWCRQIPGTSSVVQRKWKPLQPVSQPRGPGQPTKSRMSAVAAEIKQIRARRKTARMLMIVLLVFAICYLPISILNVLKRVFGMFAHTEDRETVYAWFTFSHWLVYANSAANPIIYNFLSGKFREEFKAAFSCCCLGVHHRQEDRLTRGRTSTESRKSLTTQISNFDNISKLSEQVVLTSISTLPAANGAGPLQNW
Assay: Measurement of orexin type 2 receptor agonist activity (calcium fluorescence, CHO cells expressing hOX2R)
Type: cell-based
Conditions: test compound 3 μM; CHO cells expressing human OX2 receptor; DMSO = 0%, orexin A (human) = 100%
Excerpt: To obtain a cell clone stably expressing human orexin type 2 receptor, human orexin type 2 receptor cDNA was inserted into pcDNA3.1(+) plasmid vector (Invitrogen), and a plasmid DNA for expression of human orexin type 2 receptor (pcDNA3.1(+)/hOX2R) was cloned. The plasmid DNA was introduced into CHO-dhfr cell by an electroporation method, and human orexin type 2 receptor expressing clone cells were obtained by limiting dilution method by using G418 drug resistance as a selection marker.
CHO cells forcibly expressing human OX2 receptor were seeded in each well of 384 well black transparent bottom plate (BD Falcon) at 7,500 cells/well, and cultured for one day in a 5% CO2 incubator at 37° C. After removal of the medium in the cell plate, assay buffer A containing a calcium indicator (HBSS (Thermo Fisher Scientific), 20 mM HEPES (Thermo Fisher Scientific), 0.1% BSA (Wako Pure Chemical Industries, Ltd. or Sigma-Aldrich), 2.5 μg/mL Fluo-4 AM (DOJINDO Chemical), 0.08% Pluronic F127 (DOJINDO Chemical), 1.25 mM probenecid (DOJINDO Chemical)) was added at 30 μL/well. The plate was stood for 30 min in a 5% CO2 incubator at 37° C., and further stood at room temperature for 30 min. A test compound prepared by diluting with assay buffer B (HBSS, 20 mM HEPES, 0.1% BSA) was added at 10 μL/well, and the fluorescence value was measured by FDSSμCELL (Hamamatsu Photonics K.K.) every one sec for 1 min, and thereafter every two sec for 1 min 40 sec. The activity (%) of the test compound was calculated assuming that variation in the fluorescence value when DMSO was added instead of the test compound was 0%, and variation in the fluorescence value when orexin A (human) (PEPTIDE INSTITUTE, INC.) was added at the final concentration of 10 nM was 100%.

SMILES	OX2R agonist activity (3 μM, %) [%]
COC(=O)N1CCC[C@H](NS(C)(=O)=O)[C@@H]1Cc1cccc(C2CCC2)c1 (relative stereo) [Example 60, methyl cis-2-(3-cyclobutylbenzyl)-3-((methylsulfonyl)amino)piperidine-1-carboxylate]	26
CC(C)(O)C(=O)N1CC[C@H](NS(=O)(=O)C2CC2)[C@@H]1Cc1cccc(-c2cc(F)cc(F)c2)c1F [Example 439, N-((2S,3S)-1-(2-hydroxy-2-methylpropanoyl)-2-((2,3′,5′-trifluorobiphenyl-3-yl)methyl)pyrrolidin-3-yl)cyclopropanesulfonamide]	98
CS(=O)(=O)N[C@H]1CCN(C(=O)C2CCC2)[C@H]1Cc1csc(-c2cccc(F)c2F)n1 (relative stereo) [Example 256, N-(cis-1-(cyclobutylcarbonyl)-2-((2-(2,3-difluorophenyl)-1,3-thiazol-4-yl)methyl)pyrrolidin-3-yl)methanesulfonamide]	97
CCS(=O)(=O)N[C@H]1CCN(C(=O)C2CCC2)[C@H]1Cc1csc(-c2cc(F)cc(F)c2)n1 (relative stereo) [Example 315, N-(cis-1-(cyclobutylcarbonyl)-2-((2-(3,5-difluorophenyl)-1,3-thiazol-4-yl)methyl)pyrrolidin-3-yl)ethanesulfonamide]	105
CCS(=O)(=O)N[C@H]1CCN(C(=O)C(C)(C)O)[C@H]1Cc1cccc(-c2cc(F)cc(F)c2)c1F [Example 435, N-((2S,3S)-1-(2-hydroxy-2-methylpropanoyl)-2-((2,3′,5′-trifluorobiphenyl-3-yl)methyl)pyrrolidin-3-yl)ethanesulfonamide]	107
CCS(=O)(=O)N[C@H]1CCN(C(=O)N2CCC2)[C@H]1Cc1csc(-c2cc(F)cc(F)c2)n1 [Example 348, N-((2S,3S)-1-(azetidin-1-ylcarbonyl)-2-((2-(3,5-difluorophenyl)-1,3-thiazol-4-yl)methyl)pyrrolidin-3-yl)ethanesulfonamide]	109
CCS(=O)(=O)N[C@H]1CCN(C(=O)C2(O)CCC2)[C@H]1Cc1csc(-c2cc(F)cc(F)c2)n1 (relative stereo) [Example 317, N-(cis-2-((2-(3,5-difluorophenyl)-1,3-thiazol-4-yl)methyl)-1-((1-hydroxycyclobutyl)carbonyl)pyrrolidin-3-yl)ethanesulfonamide]	103
CCS(=O)(=O)N[C@H]1CCN(C(=O)C23CC(C2)C3)[C@H]1Cc1csc(-c2cc(F)cc(F)c2)n1 (relative stereo) [Example 318, N-(cis-1-(bicyclo[1.1.1]pent-1-ylcarbonyl)-2-((2-(3,5-difluorophenyl)-1,3-thiazol-4-yl)methyl)pyrrolidin-3-yl)ethanesulfonamide]	102
C=C(C)c1cccc(C[C@H]2[C@@H](NS(=O)(=O)C3CC3)CCCN2C(=O)OC(C)C)n1 (relative stereo) [Example 191, isopropyl cis-3-((cyclopropylsulfonyl)amino)-2-((6-(prop-1-en-2-yl)pyridin-2-yl)methyl)piperidine-1-carboxylate]	79
CS(=O)(=O)N[C@H]1CCN(C(=O)N2CCC2)[C@H]1Cc1csc(-c2cc(F)cc(F)c2)n1 [Example 340, N-((2S,3S)-1-(azetidin-1-ylcarbonyl)-2-((2-(3,5-difluorophenyl)-1,3-thiazol-4-yl)methyl)pyrrolidin-3-yl)methanesulfonamide]	103
CC(C)OC(=O)N1CCC[C@H](NS(=O)(=O)CCl)[C@@H]1Cc1cccc(-c2ccccc2)n1 (relative stereo) [Example 181, isopropyl cis-3-(((chloromethyl)sulfonyl)amino)-2-((6-phenylpyridin-2-yl)methyl)piperidine-1-carboxylate]	100
CC(C)(O)C(=O)N1CC[C@H](NS(=O)(=O)C(F)F)[C@@H]1Cc1cccc(-c2cc(F)cc(F)c2)c1F [Example 424, 1,1-difluoro-N-((2S,3S)-1-(2-hydroxy-2-methylpropanoyl)-2-((2,3′,5′-trifluorobiphenyl-3-yl)methyl)pyrrolidin-3-yl)methanesulfonamide]	101
CC(C)(CO)C(=O)N1CC[C@H](NS(C)(=O)=O)[C@@H]1Cc1cccc(-c2cc(F)cc(F)c2)c1F [Example 457, N-{(2S,3S)-1-(3-hydroxy-2,2-dimethylpropanoyl)-2-[(2,3′,5′-trifluoro[1,1′-biphenyl]-3-yl)methyl]pyrrolidin-3-yl}methanesulfonamide]	103

Now from value to compound:

OX2R agonist activity (3 μM, %) [%]	SMILES
100	CCS(=O)(=O)N[C@H]1CCN(C(=O)C(C)(C)O)[C@H]1Cc1cccc(-c2cc(F)cc(F)c2)c1 [Example 404, N-((2S,3S)-2-((3′,5′-difluorobiphenyl-3-yl)methyl)-1-(2-hydroxy-2-methylpropanoyl)pyrrolidin-3-yl)ethanesulfonamide]
103	COCS(=O)(=O)N[C@H]1CCN(C(=O)C2CCC2)[C@H]1Cc1cccc(-c2cccc(F)c2)c1 [Example 312, N-((2S,3S)-1-(cyclobutylcarbonyl)-2-((3′-fluorobiphenyl-3-yl)methyl)pyrrolidin-3-yl)-1-methoxymethanesulfonamide]
100	CS(=O)(=O)N[C@H]1CCN(C(=O)C2CCC2)[C@H]1Cc1cc(F)cc(-c2ccccc2)c1 (relative stereo) [Example 299, N-(cis-1-(cyclobutylcarbonyl)-2-((5-fluorobiphenyl-3-yl)methyl)pyrrolidin-3-yl)methanesulfonamide]
102	CS(=O)(=O)N[C@H]1CCN(C(=O)C2CCC2)[C@H]1Cc1cccc(-c2cc(F)cc(F)c2)c1 [Example 310, N-((2S,3S)-1-(cyclobutylcarbonyl)-2-((3′,5′-difluorobiphenyl-3-yl)methyl)pyrrolidin-3-yl)methanesulfonamide]
97	CC(C)C(=O)N1CCC[C@H](NS(C)(=O)=O)[C@@H]1Cc1cccc(-c2ccccc2)c1 (relative stereo) [Example 95, N-(cis-2-(biphenyl-3-ylmethyl)-1-isobutyrylpiperidin-3-yl)methanesulfonamide]
101	CS(=O)(=O)N[C@H]1CCN(C(=O)N2CCC2)[C@H]1Cc1cccc(-c2cccc(F)c2)n1 (relative stereo) [Example 333, N-(cis-1-(azetidin-1-ylcarbonyl)-2-((6-(3-fluorophenyl)pyridin-2-yl)methyl)pyrrolidin-3-yl)methanesulfonamide]
104	CC1(C(=O)N2CC[C@H](NS(C)(=O)=O)[C@@H]2Cc2csc(-c3cc(F)cc(F)c3)n2)CCC1 (relative stereo) [Example 322, N-(cis-2-((2-(3,5-difluorophenyl)-1,3-thiazol-4-yl)methyl)-1-((1-methylcyclobutyl)carbonyl)pyrrolidin-3-yl)methanesulfonamide]
65	COC(=O)N1CCC[C@H](NS(C)(=O)=O)[C@@H]1Cc1cccc(-c2ccsc2)c1 (relative stereo) [Example 159, methyl cis-3-((methylsulfonyl)amino)-2-(3-(3-thienyl)benzyl)piperidine-1-carboxylate]
105	CC1(C(=O)N2CC[C@H](NS(C)(=O)=O)[C@@H]2Cc2cccc(-c3cccc(F)c3)c2)CCC1 [Example 305, N-((2S,3S)-2-((3′-fluorobiphenyl-3-yl)methyl)-1-((1-methylcyclobutyl)carbonyl)pyrrolidin-3-yl)methanesulfonamide]
81	CCNC(=O)N1CCC[C@H](NS(C)(=O)=O)[C@@H]1Cc1cccc(Cc2ccccc2)c1 (relative stereo) [Example 1, cis-2-(3-benzylbenzyl)-N-ethyl-3-((methylsulfonyl)amino)piperidine-1-carboxamide]
87	CS(=O)(=O)N[C@H]1CCN(C(=O)N2CC3(CC3)C2)[C@H]1Cc1cccc(-c2cccc(F)c2)c1 [Example 347, N-((2S,3S)-1-(5-azaspiro[2.3]hex-5-ylcarbonyl)-2-((3′-fluorobiphenyl-3-yl)methyl)pyrrolidin-3-yl)methanesulfonamide]
